The term MIC denotes the smallest concentration in the dilution series that meets the test's criterion for growth inhibition. High values mean a less susceptible organism, low ones a more susceptible organism. What is called viability is a read-out of living cells in per cent, often relative to untreated cells. In general, CC50 refers to the concentration giving 50% cytotoxicity.

From paper PMC12089509, “NorA Efflux Pump Inhibitors: Expanding SAR Knowledge of Pyrazolo[4,3‐c][1,2]benzothiazine 5,5‐Dioxide Derivatives” (Archiv Der Pharmazie, 2025) come the findings set out here.

Values after ≈ are worked out from the molar mass of the structure shown.

Series [1] concerns S. aureus SA-K1902 (norA-). The series is described as follows: MIC evaluation against SA-K1902. The series is classed as cell-based, Staphylococcus aureus. The conditions noted are these: Staphylococcus aureus. From the text: (§1) Conversely, interesting results were obtained against SA‐K2378, which overexpresses the norA gene (Table 2). […] This corroborates the hypothesis that their activity is strictly related to NorA EP inhibition.
In this study, the S. aureus strains SA‐1199B (overexpressing norA) and its isogenic parent SA‐1199 (wild type), the pair SA‐K1902 (norA‐depleted) and SA‐K2378 (complemented with a pCU1 plasmid harboring the norA promoting and coding region from SA‐1199B), were used to test EPI activity as described in a previous study. Furthermore, the S. aureus ATCC 29213 was used as the reference strain in MIC determination experiments.

Series [2] is described as follows: MTT cytotoxicity assay on A549. The series is classed as cell-based. The conditions noted are these: human, A549 cells; for viability at 72 h, 12.5 µg/mL: A549, 12.5 μg/mL; for viability at 72 h, 12.5 µg/mL / viability at 72 h, 25 µg/mL / viability at 72 h, 50 µg/mL / viability at 72 h, 100 µg/mL: read-out: Cytotoxicity (% cell viability); for viability at 72 h, 25 µg/mL: A549, 25 μg/mL; for viability at 72 h, 50 µg/mL: A549, 50 μg/mL; for viability at 72 h, 100 µg/mL: A549, 100 μg/mL. The procedure: The MTT assay was performed on two human ATCC cell lines, that is, […] (CCL‐185) and MCF7 (HTB‐22), to test the potential cytotoxic effect of the compounds, after 72 h exposure, as previously described. Each compound was tested at concentrations ranging from 12.5 to 100 μg/mL. Untreated cells were considered as controls. The percentage of viable cells was calculated as follows: % Cell viability = 100 × treated well absorbance/untreated control well absorbance. All assays were performed once in technical quadruplicate.
In general terms: Tetrazolium dyes change colour on reduction, which living cells bring about.

For series [3], the system named is S. aureus SA-K2378 (norA ++). Put plainly: Checkerboard assay EPI/CPX against SA-K2378. The format is cell-based, Staphylococcus aureus. The protocol:
as §1
Checkerboard assays were carried out using SA‐K1902 and SA‐K2378 strains according to standard procedures.

Regarding `O=S1(=O)Nc2c(-c3ccc(Cl)cc3)nn(-c3ccccc3)c2-c2ccccc21` [Compound 3], in series [1], the MIC was more than 50 µg/mL. Also, the viability at 72 h, 12.5 µg/mL in series [2] is 94 ± 24%. For the same compound, in series [2], the viability at 72 h, 25 µg/mL was found to be 99 ± 20%. The viability at 72 h, 50 µg/mL in series [2] worked out at 101 ± 24%. Besides, the viability at 72 h, 100 µg/mL in series [2] is 34 ± 10%. Besides, the “CPX MIC” value in series [3] (EPI at 0.2 µg/mL) was 0.6 µg/mL; in series [3] (EPI at 0.4 µg/mL) it was 0.6 µg/mL; in series [3] (EPI at 0.8 µg/mL), 0.3 µg/mL; in series [3] (EPI at 1.6 µg/mL), 0.16 µg/mL; in series [3] (EPI at 3.13 µg/mL), 0.16 µg/mL; in series [3] (EPI at 6.25 µg/mL) it was 0.08 µg/mL. Also, the “N° CPX MIC reduction” value is 2 in series [3] (EPI at 0.2 µg/mL); 2 in series [3] (EPI at 0.4 µg/mL); 4 in series [3] (EPI at 0.8 µg/mL); 8 in series [3] (EPI at 1.6 µg/mL); 8 in series [3] (EPI at 3.13 µg/mL); 16 in series [3] (EPI at 6.25 µg/mL).
For `CN1c2c(-c3ccc(Cl)cc3)n[nH]c2-c2ccccc2S1(=O)=O` [Compound 10, 3‐(4‐Chlorophenyl)‐4‐methyl‐1,4‐dihydropyrazolo[4,3‐c][1,2]benzothiazine 5,5‐dioxide], the MIC in series [1] was found to be 12.5 µg/mL (≈ 36.1 µM). Moreover, in series [2], the viability at 72 h, 12.5 µg/mL is 97 ± 2%; the viability at 72 h, 25 µg/mL came to 45 ± 3%; the viability at 72 h, 50 µg/mL is 7%; the viability at 72 h, 100 µg/mL came to 7 ± 2%. The CC50 at 72 h in series [2] (A549, MTT) was approximately 25 µg/mL (≈ 72.3 µM). Besides, in series [3] (EPI at 0.2 µg/mL), the “CPX MIC” value is 0.6 µg/mL and the “N° CPX MIC reduction” value was determined as 2. Besides, in series [3] (EPI at 0.4 µg/mL), the “CPX MIC” value is 0.6 µg/mL and the “N° CPX MIC reduction” value is given as 2. For the same compound, in series [3] (EPI at 0.8 µg/mL), the “CPX MIC” value amounted to 0.3 µg/mL and the “N° CPX MIC reduction” value is listed as 4. In addition, in series [3] (EPI at 1.6 µg/mL), the “CPX MIC” value was found to be 0.16 µg/mL and the “N° CPX MIC reduction” value came out at 8. Also, in series [3] (EPI at 3.13 µg/mL), the “CPX MIC” value is reported as 0.08 µg/mL and the “N° CPX MIC reduction” value came to 16.
